Key:
[1] = test system: phosphorylation of AKT on Ser473 (PI3K pathway) in T-47D (heterozygous PIK3CA H1047R) cell line; experiment: PI3K pathway activation assay (pAKT Ser473 HTRF), T-47D cells; format: cell-based; details: T-47D (heterozygous PIK3CA H1047R) cells, two hours of treatment, pAKT Ser473 HTRF; for IC50: Homo sapiens, T47D, 2 h, read-out: T47D pAKT IC50
Method: (§1) The inhibitory activity of the compounds of the disclosure was evaluated by measuring phosphorylation of AKT on Ser473 as a readout of the PI3K pathway using HTRF (CisBio catalog number: 64AKSPE). These studies were conducted in the T-47D (heterozygous PIK3CA H1047R) and SKBR3 (PIK3CA WT) cell lines. Cells were maintained in a 37° C. incubator at 5% CO2 in the following media: T-47D: RPMI 1640, ATCC© Modification (Gibco, A10491-01) supplemented with 10% v/v FBS (Gibco, 26140-079), 1% penicillin streptomycin (Gibco, 15140-122), and 7.4 ug/mL insulin (MilliporeSigma, I9278); SKBR3: McCoy's 5a (Modified) Medium (Gibco, 16600-082) supplemented with 10% v/v FBS (Gibco, 26140-079). Cells were seeded in 384-well plates at a density of 4,000 cells/well. Compounds dissolved in DMSO were added using a digital dispense (D300E, Tecan) 10-point serial dilution. After two hours of treatment, cells were lysed for thirty minutes and then incubated with detection reagents per HTRF kit material and manufacturer's instructions. Fluorescence signal was measured with a multimode plate reader (Envision 2105, Perkin Elmer). Fluorescent signal was normalized to background and DMSO controls to obtain percent inhibition/activity for each compound.

[2] = test system: phosphorylation of AKT on Ser473 (PI3K pathway) in SKBR3 (PIK3CA WT) cell line; experiment: PI3K pathway activation assay (pAKT Ser473 HTRF), SKBR3 cells; format: cell-based; details: Homo sapiens, SK-BR-3, 2 h, two hours of treatment
Method: as §1

Compound | IC50 [1] [µM] | IC50 [2] [µM] | T47D pAKT IC50 [1]
Cc1cc([C@@H](C)Nc2ccc(Cl)nc2C(=O)O)nc(N2C(=O)OC[C@@H]2Cc2ccncc2F)c1 [Example 21, 6-Chloro-3-(((R)-1-(6-((S)-4-((3-fluoropyridin-4-yl)methyl)-2-oxooxazolidin-3-yl)-4-methylpyridin-2-yl)ethyl)amino)picolinic acid] | < 0.1 | 1 to 10 | –
Cc1cc([C@@H](C)Nc2ccc(Cl)nc2C(=O)O)nc(N2C(=O)N(C)C[C@@H]2Cc2ccccc2)c1 [Example 60, 3-(((R)-1-(6-((S)-5-Benzyl-3-methyl-2-oxoimidazolidin-1-yl)-4-methylpyridin-2-yl)ethyl)amino)-6-chloropicolinic acid] | < 0.1 | 1 to 10 | –
Cc1cc(C(C)Nc2ccc(Cl)nc2C(=O)O)nc(N2C(=O)OC[C@@H]2Cc2ccccc2)c1 (single isomer, unassigned) [Example 12] | – | 1 to 10 | ++ ++
Cc1cc([C@@H](C)Nc2ccc(Cl)nc2C(=O)O)nc(N2C(=O)N(C)C[C@@H]2Cc2ccc(F)cc2)c1 [Example 58, 6-Chloro-3-(((R)-1-(6-((S)-5-(4-fluorobenzyl)-3-methyl-2-oxoimidazolidin-1-yl)-4-methylpyridin-2-yl)ethyl)amino)picolinic acid] | < 0.1 | > 10 | –
COc1cc(C[C@H]2COC(=O)N2c2cc(C)cc([C@@H](C)Nc3ccc(Cl)nc3C(=O)O)n2)c(F)cn1 [Example 29, 6-Chloro-3-(((R)-1-(6-((S)-4-((5-fluoro-2-methoxypyridin-4-yl)methyl)-2-oxooxazolidin-3-yl)-4-methylpyridin-2-yl)ethyl)amino)picolinic acid] | < 0.1 | > 10 | –
Cc1cc([C@@H](C)Nc2ccc(Cl)nc2C(=O)O)nc(N2C(=O)OC[C@@H]2Cc2ccc(F)cc2F)c1 [Example 26, 6-Chloro-3-(((R)-1-(6-((S)-4-(2,4-difluorobenzyl)-2-oxooxazolidin-3-yl)-4-methylpyridin-2-yl)ethyl)amino)picolinic acid] | < 0.1 | > 10 | –
COc1ccc(C[C@H]2COC(=O)N2c2cc(C)cc([C@@H](C)Nc3ccc(Cl)nc3C(=O)O)n2)c(F)c1 [Example 27, 6-Chloro-3-(((R)-1-(6-((S)-4-(2-fluoro-4-methoxybenzyl)-2-oxooxazolidin-3-yl)-4-methylpyridin-2-yl)ethyl)amino)picolinic acid] | < 0.1 | > 10 | –
Cc1cc(C(C)Nc2ccc(F)nc2C(=O)O)nc(N2C(=O)OC[C@@H]2Cc2ccccc2)c1 (single isomer, unassigned) [Example 11] | < 0.1 | > 10 | –
Cc1cc([C@@H](C)Nc2ccc(Cl)nc2C(=O)O)nc(N2C(=O)OC[C@@H]2Cc2ccc(C#N)cc2F)c1 [Example 49, 6-Chloro-3-(((R)-1-(6-((S)-4-(4-cyano-2-fluorobenzyl)-2-oxooxazolidin-3-yl)-4-methylpyridin-2-yl)ethyl)amino)picolinic acid] | < 0.1 | > 10 | –
Cc1cc([C@@H](C)Nc2ccc(Cl)nc2C(=O)O)nc(N2C(=O)OC[C@@H]2Cc2cccc(C)c2F)c1 [Example 20, 6-Chloro-3-(((R)-1-(6-((S)-4-(2-fluoro-3-methylbenzyl)-2-oxooxazolidin-3-yl)-4-methylpyridin-2-yl)ethyl)amino)picolinic acid] | < 0.1 | > 10 | –
Cc1cc([C@@H](C)Nc2ccc(Cl)nc2C(=O)O)nc(N2C(=O)OC[C@@H]2Cc2cccc(C#N)c2)c1 [Example 48, 6-Chloro-3-(((R)-1-(6-((S)-4-(3-cyanobenzyl)-2-oxooxazolidin-3-yl)-4-methylpyridin-2-yl)ethyl)amino)picolinic acid] | < 0.1 | > 10 | –
C[C@@H](Nc1ccc(Cl)nc1C(=O)O)c1cc(F)cc(N2C(=O)OC[C@@H]2Cc2ccccc2F)c1 [Example 61, 6-Chloro-3-(((R)-1-(3-fluoro-5-((S)-4-(2-fluorobenzyl)-2-oxooxazolidin-3-yl)phenyl)ethyl)amino)picolinic acid] | < 0.1 | 1 to 10 | –
Cc1cc([C@@H](C)Nc2ccc(Cl)nc2C(=O)O)nc(N2C(=O)OC[C@@H]2Cc2ccc(C(F)(F)F)cc2)c1 [Example 23, 6-Chloro-3-(((R)-1-(4-methyl-6-((S)-2-oxo-4-(4-(trifluoromethyl)benzyl)oxazolidin-3-yl)pyridin-2-yl)ethyl)amino)picolinic acid] | < 0.1 | > 10 | –
Cc1cc(C(C)Nc2ccc(Br)nc2C(=O)O)nc(N2C(=O)OC[C@@H]2Cc2ccccc2)c1 (single isomer, unassigned) [Example 18] | < 0.1 | > 10 | –
C[C@@H](Nc1ccc(Cl)nc1C(=O)O)c1cc(F)cc(N2C(=O)OC[C@@H]2Cc2ccccc2)c1 [Example 10, 3-(((R)-1-(3-((S)-4-Benzyl-2-oxooxazolidin-3-yl)-5-fluorophenyl)ethyl)amino)-6-chloropicolinic acid] | < 0.1 | – | –
Cc1cc([C@@H](C)Nc2ccc(Cl)nc2C(=O)O)cc(N2C(=O)OC[C@@H]2Cc2ccc(Br)cc2)c1 [Example 9, 3-(((R)-1-(3-((S)-4-(4-Bromobenzyl)-2-oxooxazolidin-3-yl)-5-methylphenyl)ethyl)amino)-6-chloropicolinic acid] | 1 to 10 | – | –
Cc1cc([C@@H](C)Nc2ccc(Cl)nc2C(=O)O)nc(N2C(=O)N(C)C[C@@H]2Cc2ccc(F)cc2F)c1 [Example 59, 6-Chloro-3-(((R)-1-(6-((S)-5-(2,4-difluorobenzyl)-3-methyl-2-oxoimidazolidin-1-yl)-4-methylpyridin-2-yl)ethyl)amino)picolinic acid] | 0.1 to 1 | > 10 | –
Cc1cc([C@@H](C)Nc2ccc(Cl)nc2C(=O)O)nc(N2C(=O)OC[C@@H]2Cc2cn(C)nc2F)c1 [Example 36, 6-Chloro-3-(((R)-1-(6-((S)-4-((3-fluoro-1-methyl-1H-pyrazol-4-yl)methyl)-2-oxooxazolidin-3-yl)-4-methylpyridin-2-yl)ethyl)amino)picolinic acid] | 0.1 to 1 | – | –
Cc1cc([C@@H](C)Nc2ccc(Cl)nc2C(=O)O)nc(N2C(=O)OC[C@@H]2Cc2ccc(F)cc2)c1 [Example 24, 6-Chloro-3-(((R)-1-(6-((S)-4-(4-fluorobenzyl)-2-oxooxazolidin-3-yl)-4-methylpyridin-2-yl)ethyl)amino)picolinic acid] | < 0.1 | > 10 | –
Cc1cc([C@@H](C)Nc2ccc(Cl)nc2C(=O)O)nc(N2C(=O)COC[C@@H]2Cc2ccccc2)c1 [Example 57, 3-(((R)-1-(6-((S)-3-Benzyl-5-oxomorpholino)-4-methylpyridin-2-yl)ethyl)amino)-6-chloropicolinic acid] | 0.1 to 1 | – | –

From patent US20250059175A1, “Mutant Pi3k-Alpha Inhibitors And Their Use As Pharmaceuticals” (Prelude Therapeutics Incorporated, priority 2023, published 2025)
